How the values were obtained:
[1] = target: KRAS G12D (Homo sapiens, UniProt P01116, G12D); test: GDP-GTP exchange assay (bodipy-GDP/GppNHp, SOS1), KRAS G12D; type: biochemical; settings: bodipy-loaded KRAS G12D 2.5 nM, 4 h pre-incubation; value for the most potent isomer quoted for certain compounds; read-out: G12D (KRAS G12D exchange assay IC50)
[2] = target: KRAS G12V (Homo sapiens, UniProt P01116, G12V); test: GDP-GTP exchange assay (bodipy-GDP/GppNHp, SOS1), KRAS G12V; type: biochemical; settings: KRAS G12V mutant; value for the most potent isomer quoted for certain compounds; read-out: G12V (KRAS G12V exchange assay IC50)
Sequence of KRAS G12V (P01116 1-188 isoform P01116-2 G12V): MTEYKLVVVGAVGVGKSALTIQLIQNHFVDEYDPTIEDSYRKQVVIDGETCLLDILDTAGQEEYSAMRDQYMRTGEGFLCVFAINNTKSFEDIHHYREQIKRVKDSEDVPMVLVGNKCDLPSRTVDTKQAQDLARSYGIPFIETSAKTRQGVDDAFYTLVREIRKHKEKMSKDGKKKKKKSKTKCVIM

Sequence of KRAS G12D (P01116 1-188 isoform P01116-2 G12D): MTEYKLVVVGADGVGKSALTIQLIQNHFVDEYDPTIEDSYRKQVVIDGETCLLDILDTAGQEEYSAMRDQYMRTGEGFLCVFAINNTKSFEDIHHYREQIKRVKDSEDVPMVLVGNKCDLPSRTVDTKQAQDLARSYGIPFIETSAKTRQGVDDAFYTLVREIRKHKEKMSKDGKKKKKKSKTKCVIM

Cc1cccc(C)c1CO[C@H]1C[C@H](c2cc3c(C)nc4c(F)c(-c5cccc(Cl)c5Cl)c(CCC#N)cc4c3n2[C@H]2[C@H]3CN[C@@H]2C3)N(C(=O)C2CC2)C1 [Example 113]
IC50 [1]: ≤ 100 nM | IC50 [2]: ≤ 100 nM

Cc1csnc1CO[C@H]1C[C@H](c2cc3c(C)nc4c(F)c(-c5cccc(Cl)c5Cl)c(CCC#N)cc4c3n2[C@H]2[C@H]3CN[C@@H]2C3)N(C(=O)C2CC2)[C@@H]1C [Example 232]
IC50 [1]: ≤ 100 nM | IC50 [2]: ≤ 100 nM

Cc1nc2c(F)c(-c3cccc(Cl)c3Cl)c(CCC#N)cc2c2c1cc([C@H]1C[C@H](n3c(=O)n(C)c4ccccc43)CN1C(=O)C1CC1)n2[C@H]1[C@H]2CN[C@@H]1C2 [Example 321]
IC50 [1]: ≤ 100 nM | IC50 [2]: 100 to 1000 nM

Cc1nc2c(F)c(-c3cccc(Cl)c3Cl)c(CCC#N)cc2c2c1cc([C@H]1C[C@H](OCc3cccc(C(=O)O)c3)CN1C(=O)C1CC1)n2[C@H]1[C@H]2CN[C@@H]1C2 [Example 165]
IC50 [1]: ≤ 100 nM | IC50 [2]: ≤ 100 nM

Cc1nc2c(F)c(-c3cccc(Cl)c3Cl)c(CCC#N)cc2c2c1cc([C@H]1C[C@H](n3cc(CC4CCNC4=O)nn3)CN1C(=O)C1CC1)n2[C@H]1[C@H]2CN[C@@H]1C2 (stereo partly shown) [Example 269]
IC50 [1]: ≤ 100 nM | IC50 [2]: ≤ 100 nM

CO[C@H]1CC[C@@H](O[C@H]2C[C@H](c3cc4c(C)nc5c(F)c(-c6cccc(Cl)c6Cl)c(CCC#N)cc5c4n3[C@H]3[C@H]4CN[C@@H]3C4)N(C(=O)C3CC3)C2)C1 [Example 439]
IC50 [1]: ≤ 100 nM | IC50 [2]: ≤ 100 nM

Cc1nc2c(F)c(-c3cccc(Cl)c3Cl)c(CCC#N)cc2c2c1cc([C@H]1C[C@H](Oc3c(F)cc(C#N)cc3F)CN1C(=O)C1CC1)n2[C@H]1[C@H]2CN[C@@H]1C2 [Example 293]
IC50 [1]: ≤ 100 nM | IC50 [2]: ≤ 100 nM

Cc1nc2c(F)c(-c3cccc(Cl)c3Cl)c(CCC#N)cc2c2c1cc([C@H]1C[C@H](n3ccc(C#N)n3)CN1C(=O)C1CC1)n2[C@H]1[C@H]2CN[C@@H]1C2 [Example 317]
IC50 [1]: ≤ 100 nM | IC50 [2]: ≤ 100 nM

COc1cccc(O[C@H]2C[C@H](c3cc4c(C)nc5c(F)c(-c6cccc(Cl)c6Cl)c(CCC#N)cc5c4n3[C@H]3C4CNC3C4)N(C(=O)C3CC3)C2)n1 (stereo partly shown) [Example 199]
IC50 [1]: ≤ 100 nM | IC50 [2]: ≤ 100 nM

COC(=O)c1cnn([C@H]2C[C@H](c3cc4c(C)nc5c(F)c(-c6cccc(Cl)c6Cl)c(CCC#N)cc5c4n3[C@H]3[C@H]4CN[C@@H]3C4)N(C(=O)C3CC3)C2)c1 [Example 353]
IC50 [1]: ≤ 100 nM | IC50 [2]: ≤ 100 nM

Cc1nc2c(F)c(-c3cccc(Cl)c3Cl)c(CCC#N)cc2c2c1cc([C@H]1C[C@H](OCc3cn(C)nn3)CN1C(=O)C1CC1)n2[C@H]1[C@H]2CN[C@@H]1C2 [Example 100]
IC50 [1]: ≤ 100 nM | IC50 [2]: ≤ 100 nM

Cc1nc2c(F)c(-c3cccc(Cl)c3Cl)c(CCC#N)cc2c2c1cc([C@H]1C[C@H](n3cc(CN4CCOCC4=O)nn3)CN1C(=O)C1CC1)n2[C@H]1[C@H]2CN[C@@H]1C2 [Example 323]
IC50 [1]: ≤ 100 nM | IC50 [2]: ≤ 100 nM

Cc1nc2c(F)c(-c3cccc(Cl)c3Cl)c(CCC#N)cc2c2c1cc([C@H]1C[C@H](OCc3ccnn3C(F)F)CN1C(=O)C1CC1)n2[C@H]1[C@H]2CN[C@@H]1C2 [Example 313]
IC50 [1]: ≤ 100 nM | IC50 [2]: ≤ 100 nM

Cc1cc(F)ncc1O[C@H]1C[C@H](c2cc3c(C)nc4c(F)c(-c5cccc(Cl)c5Cl)c(CCC#N)cc4c3n2[C@H]2[C@H]3CN[C@@H]2C3)N(C(=O)C2CC2)C1 [Example 283]
IC50 [1]: ≤ 100 nM | IC50 [2]: ≤ 100 nM

Cc1csnc1C(C)O[C@H]1C[C@H](c2cc3c(C)nc4c(F)c(-c5cccc(Cl)c5Cl)c(CCC#N)cc4c3n2[C@H]2[C@H]3CN[C@@H]2C3)N(C(=O)C2CC2)C1 (stereo partly shown) [Example 330]
IC50 [1]: ≤ 100 nM | IC50 [2]: ≤ 100 nM

Cc1nc2c(F)c(-c3cccc(Cl)c3Cl)c(CCC#N)cc2c2c1cc([C@H]1C[C@H](Oc3cccnc3OC(C)C)CN1C(=O)C1CC1)n2[C@H]1[C@H]2CN[C@@H]1C2 [Example 444]
IC50 [1]: ≤ 100 nM | IC50 [2]: ≤ 100 nM

Cc1nc2c(F)c(-c3cccc(Cl)c3Cl)c(CCC#N)cc2c2c1cc([C@H]1C[C@H](Oc3cc(Cl)ccn3)CN1C(=O)C1CC1)n2[C@H]1[C@H]2CN[C@@H]1C2 [Example 297]
IC50 [1]: ≤ 100 nM | IC50 [2]: ≤ 100 nM

Cc1nc2c(F)c(-c3cccc(Cl)c3Cl)c(CCC#N)cc2c2c1cc([C@H]1C[C@H](OC[C@H]3C[C@H](C#N)C3)CN1C(=O)C1CC1)n2[C@H]1[C@H]2CN[C@@H]1C2 [Example 402]
IC50 [1]: ≤ 100 nM | IC50 [2]: ≤ 100 nM

Cc1nc2c(F)c(-c3cccc(Cl)c3Cl)c(CCC#N)cc2c2c1cc([C@H]1C[C@H](OCc3nc4ccccc4s3)CN1C(=O)C1CC1)n2[C@H]1[C@H]2CN[C@@H]1C2 [Example 360]
IC50 [1]: ≤ 100 nM | IC50 [2]: ≤ 100 nM

Cc1nc2c(F)c(-c3cccc(Cl)c3Cl)c(CCC#N)cc2c2c1cc([C@H]1C[C@H](OCc3nsc4ccccc34)CN1C(=O)C1CC1)n2[C@H]1[C@H]2CN[C@@H]1C2 [Example 255]
IC50 [1]: ≤ 100 nM | IC50 [2]: ≤ 100 nM

Cc1nc2c(F)c(-c3cccc(Cl)c3Cl)c(CCC#N)cc2c2c1cc([C@H]1C[C@H](OC[C@@H]3CCCO3)CN1C(=O)C1CC1)n2[C@H]1[C@H]2CN[C@@H]1C2 [Example 400]
IC50 [1]: ≤ 100 nM | IC50 [2]: ≤ 100 nM

Cc1nc2c(F)c(-c3cccc(Cl)c3Cl)c(CCC#N)cc2c2c1cc([C@H]1C[C@H](Oc3ccnc4c3CCO4)CN1C(=O)C1CC1)n2[C@H]1[C@H]2CN[C@@H]1C2 [Example 329]
IC50 [1]: ≤ 100 nM | IC50 [2]: ≤ 100 nM

Cc1nc2c(F)c(-c3cccc(Cl)c3Cl)c(CCC#N)cc2c2c1cc([C@H]1C[C@H](n3cc([C@H](C)O)nn3)CN1C(=O)C1CC1)n2[C@H]1C2CNC1C2 (stereo partly shown) [Example 184]
IC50 [1]: ≤ 100 nM | IC50 [2]: ≤ 100 nM

CC(O)c1nc2c(F)c(-c3cccc(Cl)c3Cl)c(CCC#N)cc2c2c1cc([C@H]1C[C@H](OCc3ccc(F)cc3C#N)CN1C(=O)C1CC1)n2[C@H]1[C@H]2CN[C@@H]1C2 (stereo partly shown) [Example 178]
IC50 [1]: ≤ 100 nM | IC50 [2]: ≤ 100 nM

Cc1nc2c(F)c(-c3cccc(Cl)c3Cl)c(CCC#N)cc2c2c1cc([C@H]1C[C@H](OCc3ccccc3)CN1C(=O)C1(C)CC1)n2[C@H]1[C@H]2CN[C@@H]1C2 [Example 127]
IC50 [1]: ≤ 100 nM | IC50 [2]: ≤ 100 nM

Cc1nc2c(F)c(-c3cccc(Cl)c3Cl)c(CCC#N)cc2c2c1cc([C@H]1C[C@H](OC3CCCC3)CN1C(=O)C1CC1)n2[C@H]1[C@H]2CN[C@@H]1C2 [Example 238]
IC50 [1]: ≤ 100 nM | IC50 [2]: ≤ 100 nM

Cc1nc2c(F)c(-c3cccc(Cl)c3Cl)c(CCC#N)cc2c2c1cc([C@H]1C[C@H](OCc3c(F)cccc3F)CN1C(=O)C1CC1)n2[C@H]1[C@H]2CN[C@@H]1C2 [Example 115]
IC50 [1]: ≤ 100 nM | IC50 [2]: ≤ 100 nM

Cc1nc2c(F)c(-c3cccc(Cl)c3Cl)c(CCC#N)cc2c2c1cc([C@H]1C[C@H](Oc3ccnc(C4CCC4)c3)CN1C(=O)C1CC1)n2[C@H]1[C@H]2CN[C@@H]1C2 [Example 421]
IC50 [1]: ≤ 100 nM | IC50 [2]: ≤ 100 nM

Cc1ncn([C@H]2C[C@H](c3cc4c(C)nc5c(F)c(-c6cccc(Cl)c6Cl)c(CCC#N)cc5c4n3[C@H]3[C@H]4CN[C@@H]3C4)N(C(=O)C3CC3)C2)n1 [Example 277]
IC50 [1]: ≤ 100 nM | IC50 [2]: ≤ 100 nM

Cc1nc2c(F)c(-c3cccc(Cl)c3Cl)c(CCC#N)cc2c2c1cc([C@H]1C[C@H](n3cnc(-c4ccccc4)n3)CN1C(=O)C1CC1)n2[C@H]1[C@H]2CN[C@@H]1C2 [Example 349]
IC50 [1]: ≤ 100 nM | IC50 [2]: ≤ 100 nM

Cc1nc2c(F)c(-c3cccc(Cl)c3Cl)c(CCC#N)cc2c2c1cc([C@H]1C[C@H](Oc3ccccc3C#N)CN1C(=O)C1CC1)n2[C@H]1[C@H]2CN[C@@H]1C2 [Example 249]
IC50 [1]: ≤ 100 nM | IC50 [2]: ≤ 100 nM

Cc1nc2c(F)c(-c3cccc(Cl)c3Cl)c(CCC#N)cc2c2c1cc([C@H]1C[C@H](Oc3ccc(C(F)(F)F)nc3)CN1C(=O)C1CC1)n2[C@H]1[C@H]2CN[C@@H]1C2 [Example 308]
IC50 [1]: ≤ 100 nM | IC50 [2]: ≤ 100 nM

COc1cc(O[C@H]2C[C@H](c3cc4c(C)nc5c(F)c(-c6cccc(Cl)c6Cl)c(CCC#N)cc5c4n3[C@H]3[C@H]4CN[C@@H]3C4)N(C(=O)C3CC3)C2)ccn1 [Example 304]
IC50 [1]: ≤ 100 nM | IC50 [2]: ≤ 100 nM

Cc1nc2c(F)c(-c3cccc(Cl)c3Cl)c(CCC#N)cc2c2c1cc([C@H]1C[C@H](Oc3cncc4c3OCCC4)CN1C(=O)C1CC1)n2[C@H]1[C@H]2CN[C@@H]1C2 [Example 289]
IC50 [1]: ≤ 100 nM | IC50 [2]: ≤ 100 nM

Cc1nc2c(F)c(-c3cccc(Cl)c3Cl)c(CCC#N)cc2c2c1cc([C@H]1C[C@H](n3ccnn3)CN1C(=O)C1CC1)n2[C@H]1[C@H]2CN[C@@H]1C2 [Example 342]
IC50 [1]: ≤ 100 nM | IC50 [2]: ≤ 100 nM

Cc1ccnc(C)c1CO[C@H]1C[C@H](c2cc3c(C)nc4c(F)c(-c5cccc(Cl)c5Cl)c(CCC#N)cc4c3n2[C@H]2[C@H]3CN[C@@H]2C3)N(C(=O)C2CC2)C1 [Example 125]
IC50 [1]: ≤ 100 nM | IC50 [2]: ≤ 100 nM

CC(=O)NC(C)(C)c1cn([C@H]2C[C@H](c3cc4c(C)nc5c(F)c(-c6cccc(Cl)c6Cl)c(CCC#N)cc5c4n3[C@H]3[C@H]4CN[C@@H]3C4)N(C(=O)C3CC3)C2)nn1 [Example 272]
IC50 [1]: ≤ 100 nM | IC50 [2]: ≤ 100 nM

Cc1ccnc(O[C@H]2C[C@H](c3cc4c([C@@H](C)O)nc5c(F)c(-c6cccc(Cl)c6Cl)c(CCC#N)cc5c4n3[C@H]3C4CNC3C4)N(C(=O)C3CC3)C2)c1 (stereo partly shown) [Example 424]
IC50 [1]: ≤ 100 nM | IC50 [2]: ≤ 100 nM

Cc1nc2c(F)c(-c3cccc(Cl)c3Cl)c(CCC#N)cc2c2c1cc([C@H]1C[C@H](Oc3cccc(C(=O)N(C)C)c3)CN1C(=O)C1CC1)n2[C@H]1[C@H]2CN[C@@H]1C2 [Example 174]
IC50 [1]: ≤ 100 nM | IC50 [2]: ≤ 100 nM

CCOC(=O)c1cn([C@H]2C[C@H](c3cc4c(C)nc5c(F)c(-c6cccc(Cl)c6Cl)c(CCC#N)cc5c4n3[C@H]3[C@H]4CN[C@@H]3C4)N(C(=O)C3CC3)C2)nn1 [Example 394]
IC50 [1]: ≤ 100 nM | IC50 [2]: ≤ 100 nM

Cc1nc2c(F)c(-c3cccc(Cl)c3Cl)c(CCC#N)cc2c2c1cc([C@H]1C[C@H](OC[C@@H]3CCCC[C@H]3C)CN1C(=O)C1CC1)n2[C@H]1[C@H]2CN[C@@H]1C2 [Example 286]
IC50 [1]: 1000 to 5000 nM | IC50 [2]: 100 to 1000 nM
